ChEMBL document CHEMBL3091305, “Metabolism-guided discovery of a potent and orally bioavailable urea-based calcimimetic for the treatment of secondary hyperparathyroidism” (Bioorg Med Chem Lett, 2013)

What was measured:
[1] = in vivo; conditions: Sprague-Dawley, rat, po, 2 mg/kg
[2] = in vivo; conditions: Sprague-Dawley, rat, iv, 0.5 mg/kg

For NS(=O)(=O)c1ccc(-c2nsc(NC(=O)N(CCC(c3ccc(F)cc3)c3ccc(F)cc3)CCN3CCOCC3)n2)cc1, the bioavailability [1] was 39% and the clearance [2] was 26.7 mL/min/kg.
CS(=O)(=O)Nc1ccc(-c2csc(NC(=O)N(CCC(c3ccccc3)c3ccccc3)CCN3CCOCC3)n2)cc1 showed a clearance [2] of 63.3 mL/min/kg.
